Test results taken from patent publication US6555126B2, “Method for treating, controlling, and preventing Diabetes Mellitus” (Diabex, Inc., priority 1999, dated 2003).

Tests used:
normoglycemic rats = test: Hypoglycemic effect of a single intraperitoneal injection in normoglycemic rats; assay type: in vivo
From the text: (§1) Preparation of Animals: For each experiment, eight (8) overnight fasted normoglycemic and diabetic rats were used. The animals were kept in the experimental animal laboratory for three days with free access to food and water.
(§2) On the day of the experiment, blood samples were collected at zero time before IP injection of the test substance (Riedel De Hein—Germany), and at intervals as given in Table 1 and 2. Blood samples were drawn from the ear vein in 100 micro millimeter heparinized capillary tubes.
(§3) Blood glucose concentrations were determined according to glucose oxidase method, using glucose enzymatic kits (Biomerioux France).
(§4) The percentage change in glycaemia was calculated.
(§5) For control animals, sterile saline solution was used instead of Linalool.
(§6) Data are expressed as means and standard error of the mean (S.E.M.) statistical analysis were performed using student's t test.

[1] = system: Streptozocin diabetic rats; test: Hypoglycemic effect of a single intraperitoneal injection in Streptozocin diabetic (hyperglycemic) rats; assay type: in vivo
Method: as §1
Hyperglycemia was induced in the diabetic group of rats by a single intraperitoneal injection of Streptozocin (Upjohn Co, Kalamazoo, Mich., USA). […] body weight-freshly dissolved in citrate phosphate buffer with pH adjusted to 4.5.
Diabetes was confirmed one week after administration of Streptozocin by determining the fasting blood glucose concentration. […] The fasting blood glucose concentration in normal rats is 90-120 mg/dl.
as §2, §3, §4, §5, §6

[2] = system: diabetic volunteers (Diabetes Mellitus); test: Limited clinical study in diabetic volunteers; assay type: in vivo, human; parameters: key to readings (blood glucose) / Fasting Blood Sugar: blood glucose in mg/dl
Method: The study was conducted with strict and continuous monitoring of all vital physical parameters of all volunteers. No clinical or biochemical side effects were observed during or after the test periods. Special attention was made while monitoring Blood Urea, Serum Creatinine, SGPT, Cholesterol, and Triglycerides.
The study involved over 200 diabetic volunteers with different types of Diabetes Mellitus and from different countries, and of both sexes. The breakdown was as follows:
Group One: Two (2) volunteers were new Diabetes Mellitus patients (Virgin cases).
These volunteers had never been treated for the disease and never taken any of the known and standard Diabetes Mellitus medications.
Started using Linalool Enteric Coated Softgels 0.45 ml 3 times daily with meals, on Feb. 22nd, 1999.
Group Two: One (1) volunteer had hyper insulinemia with readings of 400 mg/dl of glucose
The study involved over two hundred diabetic volunteers of both sexes, who had the disease from 3 to 25 years. In various lots, the volunteers were on insulin alone, insulin and hypoglycemic drugs, or hypoglycemic drugs alone. The patients took the product in the form of softgel enteric coated capsules (0.5 ml Linalool and 100 mg vitamin E) one capsule with meals three times a day. The duration of treatment was minimum three months. The product was given along with the classical hypoglycemic treatment (insulin and others). These classical hypoglycemic medications, Insulin—morning and evening, and Daonil (Glibenclamide 5 mg), Glucaphage (metformin 850 mg and other medications, were decreased gradually depending on the monitored improvements of the patient condition.

rats (Rattus rattus) = test: LD 50 determination in rats, single subcutaneous dose; assay type: in vivo; conditions: one single dose subcutaneously
Method: 1. LD 50: For this determination, 59 rats (Rattus rattus) of both sexes were used with body weights of 200-240 grams to determine the LD50. The rats were divided into groups consisting of 5-6 rats each.
The rats were fed standard laboratory pellet diet and water ad libitum. Linalool was given as one single dose subcutaneously to rats in gradually increasing doses of 0.2 ml/kg body weight, […], 0.3 ml/kg, 0.35 ml/kg, 0.40 ml/kg, 0.45 ml/kg, 0.50 ml/kg, 0.55 ml/kg, 0.60 ml/kg, 0.65 ml/kg.
LD 50 was determined to be 0.63 ml/kg body weight.

[3] = Group Two volunteer, hyper insulinemia, June 24, 1999

With “insulin: short acting soluble insulin preparation, 5 units injected IP as comparator [reference compound]” the “decrease in blood glucose concentration within the first 15 min” value (normoglycemic rats; insulin injection, called insignificant, rat group not stated) was 17.1%, the “decrease in blood glucose concentration after one hour” value (normoglycemic rats; normoglycemic rats, 5 units of insulin injected IP) was 49% and the “decrease in blood glucose concentration after one hour” value ([1]; hyperglycemic rats, 5 units of insulin injected IP) was 47.1%.
For `C=CC(C)(O)CCC=C(C)C` (stereo not drawn) [Linalool, 3,7 dimethyl-1,6-octadien-3-ol], the “Change in blood glucose % at 15 min.” value (normoglycemic rats; Table 1, normoglycemic rats, 0.2 ml/kg single i.p. injection, 15 min) was −36.1%, the “Change in blood glucose % at 1 h.” value (normoglycemic rats; Table 1, normoglycemic rats, 0.2 ml/kg single i.p. injection) was −35.2% and the “Change in blood glucose % at 1 h.” value (normoglycemic rats; Table 2, normoglycemic rats, 0.2 ml/kg single i.p. injection, mean ± S.E.M.) was −35.2 ± 6.2 %. The “Change in blood glucose % at 4 h.” value (normoglycemic rats; Table 2, normoglycemic rats, 0.2 ml/kg single i.p. injection, 4 h, mean ± S.E.M.) was −40.9 ± 8.2 %, the “Change in blood glucose % at 24 h.” value (normoglycemic rats; Table 2, normoglycemic rats, 0.2 ml/kg single i.p. injection, 24 h, mean ± S.E.M.) was −18.9 ± 4.4 % and the “hypoglycemic activity within the first four hours after the administration” value (normoglycemic rats; first of two values, normoglycemic rats (first hour)) was 33.2%. For the same compound, the “time of highest hypoglycemic activity after the intraperitoneal injection” value (normoglycemic rats; normoglycemic rats) was “four”, the “decrease in blood glucose concentration within the first 15 min” value (normoglycemic rats; normoglycemic rats treated by Linalool) was 36.1% and the “hypoglycemic activity (in words)” value (normoglycemic rats; normoglycemic rats, i.p. injection) was “significant hypoglycemic activity”. For the same compound, the “Change in blood glucose % at 15 min.” value ([1]; Table 1, hyperglycemic rats, 0.2 ml/kg single i.p. injection, 15 min) was −32.1%, the “Change in blood glucose % at 1 h.” value ([1]; Table 1, hyperglycemic rats, 0.2 ml/kg single i.p. injection) was −35% and the “Change in blood glucose % at 1 h.” value ([1]; Table 2, hyperglycemic rats, 0.2 ml/kg single i.p. injection, mean ± S.E.M.) was −36.4 ± 8.6 %. For the same compound, the “Change in blood glucose % at 4 h.” value ([1]; Table 2, hyperglycemic rats, 0.2 ml/kg single i.p. injection, 4 h, mean ± S.E.M.) was −43.7 ± 6.6 %, the “Change in blood glucose % at 24 h.” value ([1]; Table 2, hyperglycemic rats, 0.2 ml/kg single i.p. injection, 24 h, mean ± S.E.M.) was −55.8 ± 6.2 % and the “time of highest hypoglycemic activity after the injection” value ([1]; hyperglycemic rats) was 24 h. For the same compound, the “decrease in blood glucose concentration within the first 15 min” value ([1]; hyperglycemic rats treated by Linalool) was 32.1%, the “hypoglycemic activity (in words)” value ([1]; hyperglycemic rats, i.p. injection) was “significant hypoglycemic activity” and the “hypoglycemic activity within the first four hours after the administration” value ([1]; second of two values, hyperglycemic rats (first hour)) was 36.4%. The “readings (blood glucose)” value ([2]; Group Three volunteer 4, Dec. 17) was 175 mg/dL, the “readings (blood glucose)” value ([2]; Group Three volunteer 4, Dec. 24) was 163 and the “readings (blood glucose)” value ([2]; Group Three volunteer 4, Jul. 26, 1999) was 105 mg/dL. The “clinical outcome (physician's judgement)” value ([2]; Group Three volunteer 4, July 14th, taken off all medication) was “CURED”, the “HbAlc Readings (lowered to)” value ([2]; Group Three volunteer 4, Jun. 4, 1999) was 6.18% and the “readings (blood glucose)” value ([2]; Group Three volunteer 4, Jun. 18) was 109. The “readings (blood glucose)” value ([2]; Group Three volunteer 4, Jun. 26) was 105, the “HbAlc Readings, starting value (lowered from)” value ([2]; Group Three volunteer 4, date not stated) was 9.3% and the “Fasting Blood Sugar” value ([2]; Group Three volunteer 5, diabetic over 20 years, Jul. 27, 1998) was 233 mg/dL. The HbAlc [2, 3] was 7.5%, the “Insulin, Fasting” value [2, 3] was 25.6 uU/mL and the “Serum Glucose, Fasting” value [2, 3] was 222 mg/dL. The “Serum Glucose, Fasting” value ([2]; Group Two volunteer, hyper insulinemia, May 17, 1999, untreated reading 197 mg/dl) was 200 mg/dL, the HbAlc ([2]; Group Two volunteer, hyper insulinemia, May 17, 1999, untreated reading 8.2%) was 8.1% and the “Insulin, Fasting” value ([2]; Group Two volunteer, hyper insulinemia, May 17, 1999, untreated reading 42 uU/mL) was 18.40 uU/mL. For the same compound, the “reduction of fasting insulin level” value ([2]; Group Two volunteer, from 42 uU/mL to 25.6) was roughly 50%, the “Fasting Blood Sugar” value ([2]; volunteer 5, Aug. 17, 1998) was 190 and the HbAlc ([2]; volunteer 5, Aug. 17, 1998) was 10.1%. The “Fasting Blood Sugar” value ([2]; volunteer 5, Jan. 27, 1999) was 167, the HbAlc ([2]; volunteer 5, Jan. 27, 1999) was 7.0% and the HbAlc ([2]; volunteer 5, Jul. 27, 1998) was 11.2%. For the same compound, the “Fasting Blood Sugar” value ([2]; volunteer 5, Nov. 1, 1998) was 114, the “Fasting Blood Sugar” value ([2]; volunteer 5, Nov. 12, 1998) was 135 and the HbAlc ([2]; volunteer 5, Nov. 12, 1998) was 7.5%. The “Fasting Blood Sugar” value ([2]; volunteer 5, Sep. 17, 1998) was 166, the HbAlc ([2]; volunteer 5, Sep. 17, 1998) was 9.7% and the “LD 50” value (rats (Rattus rattus)) was 0.63 ml/kg body weight.
